Experimental data as given in paper PMC11876601 (Molecular Systems Biology, 2025).
Where two headings read alike, the source gives them in different places.

Columns and labels:
[1] = test system: RPS6KA3; design: method as in Reinecke et al. (2023); details: RPS6KA3, 5 cell line mix lysate, Kinobeads ε, ref Reinecke et al. (2023), cited from earlier work
[2] = test system: FLT4; design: method as in Reinecke et al. (2023); details: FLT4, 5 cell line mix lysate, Kinobeads ε, ref Reinecke et al. (2023), cited from earlier work
[3] = test system: Colo-357 cells; assay: Drug combination viability screen (ATPlite, 72 h); type: cell-based, human; design: AUC: unit not given beside the values; details: for EC50: Homo sapiens, COLO357;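 for AUC: area under vehicle-normalized viability curve scaled 0 to 100 percent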;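 for Curve bottom: fraction of vehicle control viability from four-parameter log-logistic fit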
[4] = test system: HuP-T4 cells; assay: Drug combination viability screen (ATPlite, 72 h); type: cell-based, human; design: AUC: unit not given beside the values; details: for EC50: Homo sapiens;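 for AUC: area under vehicle-normalized viability curve scaled 0 to 100 percent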;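 for Curve bottom: fraction of vehicle control viability from four-parameter log-logistic fit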
[5] = test system: MiaPaCa-2 cells; assay: Drug combination viability screen (ATPlite, 72 h); type: cell-based, human; design: AUC: unit not given beside the values; details: for EC50: Homo sapiens;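 for AUC: area under vehicle-normalized viability curve scaled 0 to 100 percent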;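 for Curve bottom: fraction of vehicle control viability from four-parameter log-logistic fit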
[6] = test system: Suit2-07 cells; assay: Drug combination viability screen (ATPlite, 72 h); type: cell-based, human; design: AUC: unit not given beside the values; details: for EC50: Homo sapiens;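 for AUC: area under vehicle-normalized viability curve scaled 0 to 100 percent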;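 for Curve bottom: fraction of vehicle control viability from four-parameter log-logistic fit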
[7] = test system: PaTu-8988-T cells; assay: Drug combination viability screen (ATPlite, 72 h); type: cell-based, human; design: AUC: unit not given beside the values; details: for EC50: Homo sapiens, PaTu 8988t;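 for AUC: area under vehicle-normalized viability curve scaled 0 to 100 percent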
[8] = test system: RPS6KA3; design: method as in Klaeger et al. (2017); details: lysate 4 cell line mix (Colo205, K-562, MV-4-11, and SK-N-BE(2)), Kinobeads y, ref Klaeger et al. (2017); cited from earlier work
[9] = test system: AP2A1; design: method as in Klaeger et al. (2017); details: AP2A1, 4 cell line mix lysate, Kinobeads y, ref Klaeger et al. (2017); cited from earlier work

SMILES: COc1cc(N2CCC(N3CCN(C)CC3)CC2)ccc1Nc1ncc(Cl)c(Nc2ccccc2P(C)(C)=O)n1 [Brigatinib]
- EC50 [1]: 0.162 µM
- pKDapp [1]: 6.93
- Kd ([1]; read-out: KDapp): 0.118 µM
- EC50 [2]: 0.369 µM
- pKDapp [2]: 6.43
- Kd ([2]; read-out: KDapp): 0.369 µM

SMILES: Nc1ccn([C@@H]2O[C@H](CO)[C@@H](O)C2(F)F)c(=O)n1 [GEM, Gemcitabine]
- ATP luminescence signal ([3]; Colo-357, R1, 13.72 nM): 68560
- ATP luminescence signal ([3]; Colo-357, R1, 41.15 nM): 61560
- ATP luminescence signal ([3]; Colo-357, R1, […] nM): 70640
- ATP luminescence signal ([3]; Colo-357, R1, 370.37 nM): 48200
- ATP luminescence signal ([3]; Colo-357, R1, 1111.11 nM): 53560
- ATP luminescence signal ([3]; Colo-357, R1, 3333.33 nM): 50680
- ATP luminescence signal ([3]; Colo-357, R1, 10000 nM): 66360
- ATP luminescence signal ([3]; Colo-357, R2, 13.72 nM): 110000
- ATP luminescence signal ([3]; Colo-357, R2, 41.15 nM): 110560
- ATP luminescence signal ([3]; Colo-357, R2, […] nM): 89840
- ATP luminescence signal ([3]; Colo-357, R2, 370.37 nM): 97560
- ATP luminescence signal ([3]; Colo-357, R2, 1111.11 nM): 70040
- ATP luminescence signal ([3]; Colo-357, R2, 3333.33 nM): 80720
- ATP luminescence signal ([3]; Colo-357, R2, 10000 nM): 83360
- Curve bottom ([3]; Colo-357, GEM curve fit): 0.03
- Curve effect size ([3]; Colo-357, GEM curve fit): 0.97
- Curve slope ([3]; Colo-357, GEM curve fit): 3.24
- Curve top ([3]; Colo-357, GEM curve fit): 0.97
- AUC ([3]; Colo-357, GEM curve fit, in %): 20.82
- EC50 ([3]; read-out: EC50): 0.00132 µM
- EC50 ([3]; read-out: pEC50 (converted)): 0.00132 µM
- EC50 ([4]; HuP-T4, read-out: EC50): 0.00308 µM
- EC50 ([4]; HuP-T4, read-out: pEC50 (converted)): 0.00309 µM
- Reponse ([4]; HuP-T4, R1, 13.72 nM): 312040
- Reponse ([4]; HuP-T4, R1, 370.37 nM): 231280
- Reponse ([4]; HuP-T4, R1, 1111.11 nM): 191240
- Reponse ([4]; HuP-T4, R1, 3333.33 nM): 187320
- Reponse ([4]; HuP-T4, R1, 10000 nM): 235360
- Reponse ([4]; HuP-T4, R2, 13.72 nM): 353160
- Reponse ([4]; HuP-T4, R2, 41.15 nM): 432720
- Reponse ([4]; HuP-T4, R2, […] nM): 313280
- Reponse ([4]; HuP-T4, R2, 370.37 nM): 314320
- Curve bottom ([4]; HuP-T4, GEM curve fit): 0.12
- Curve effect size ([4]; HuP-T4, GEM curve fit): 0.88
- Curve slope ([4]; HuP-T4, GEM curve fit): 4.56
- Curve top ([4]; HuP-T4, GEM curve fit): 0.99
- AUC ([4]; HuP-T4, GEM curve fit, in %): 35.37
- EC50 ([5]; MIA PaCa-2, read-out: EC50,GEM): ≥ 0.01 µM
- EC50 ([5]; MIA PaCa-2, read-out: EC50): 0.0136 µM
- EC50 ([5]; MIA PaCa-2, read-out: pEC50 (converted)): 0.0135 µM
- Reponse ([5]; MiaPaCa-2, R1, 13.72 nM): 4319964
- Reponse ([5]; MiaPaCa-2, R1, 41.15 nM): 2249377
- Reponse ([5]; MiaPaCa-2, R1, […] nM): 1464819
- Reponse ([5]; MiaPaCa-2, R1, 370.37 nM): 1237785
- Reponse ([5]; MiaPaCa-2, R1, 1111.11 nM): 1237333
- Reponse ([5]; MiaPaCa-2, R1, 3333.33 nM): 1424454
- Reponse ([5]; MiaPaCa-2, R1, 10000 nM): 1232056
- Reponse ([5]; MiaPaCa-2, R2, 13.72 nM): 3184320
- Reponse ([5]; MiaPaCa-2, R2, 41.15 nM): 1827720
- Reponse ([5]; MiaPaCa-2, R2, […] nM): 1167560
- Reponse ([5]; MiaPaCa-2, R2, 370.37 nM): 1308800
- Reponse ([5]; MiaPaCa-2, R2, 1111.11 nM): 1074400
- Reponse ([5]; MiaPaCa-2, R2, 3333.33 nM): 1132280
- Reponse ([5]; MiaPaCa-2, R2, 10000 nM): 1191360
- Curve bottom ([5]; MiaPaCa-2, GEM curve fit): 0.18
- Curve effect size ([5]; MiaPaCa-2, GEM curve fit): 0.81
- Curve slope ([5]; MiaPaCa-2, GEM curve fit): 1.52
- Curve top ([5]; MiaPaCa-2, GEM curve fit): 0.96
- AUC ([5]; MiaPaCa-2, GEM curve fit, in %): 51.47
- EC50 ([6]; read-out: EC50): 0.00758 µM
- EC50 ([6]; read-out: pEC50 (converted)): 0.00759 µM
- Reponse ([6]; Suit2-07, R1, 13.72 nM): 2323360
- Reponse ([6]; Suit2-07, R1, 41.15 nM): 1614080
- Reponse ([6]; Suit2-07, R1, […] nM): 1487640
- Reponse ([6]; Suit2-07, R1, 370.37 nM): 1265760
- Reponse ([6]; Suit2-07, R1, 1111.11 nM): 1242400
- Reponse ([6]; Suit2-07, R1, 3333.33 nM): 1298400
- Reponse ([6]; Suit2-07, R1, 10000 nM): 913840
- Reponse ([6]; Suit2-07, replicate R2, dose 13.72 nM, raw signal): 3086160
- Reponse ([6]; Suit2-07, replicate R2, dose 41.15 nM, raw signal): 2294600
- Reponse ([6]; Suit2-07, replicate R2, dose 123.46 nM, raw signal): 1746480
- Reponse ([6]; Suit2-07, replicate R2, dose 370.37 nM, raw signal): 1730640
- Reponse ([6]; Suit2-07, replicate R2, dose 1111.11 nM, raw signal): 1568520
- Reponse ([6]; Suit2-07, replicate R2, dose 3333.33 nM, raw signal): 1439120
- Reponse ([6]; Suit2-07, replicate R2, dose 10000 nM, raw signal): 1173920
- Curve bottom ([6]; Suit2-07, GEM curve fit): 0.19
- Curve effect size ([6]; Suit2-07, GEM curve fit): 0.81
- Curve slope ([6]; Suit2-07, GEM curve fit): 1.96
- Curve top ([6]; Suit2-07, GEM curve fit): 1.00
- AUC ([6]; Suit2-07, GEM curve fit, in %): 46.93
- EC50 ([7]; read-out: EC50,GEM): ≥ 0.01 µM
- EC50 ([7]; read-out: EC50): 0.00974 µM
- EC50 ([7]; read-out: pEC50 (converted)): 0.00977 µM
- Reponse ([7]; PaTu-8988-T, R1, 13.72 nM): 1159840
- Reponse ([7]; PaTu-8988-T, R1, 41.15 nM): 749200
- Reponse ([7]; PaTu-8988-T, R1, […] nM): 706000
- Reponse ([7]; PaTu-8988-T, R1, 370.37 nM): 666320
- Reponse ([7]; PaTu-8988-T, R1, 1111.11 nM): 670960
- Reponse ([7]; PaTu-8988-T, R1, 3333.33 nM): 680760
- Reponse ([7]; PaTu-8988-T, R1, 10000 nM): 674680
- Reponse ([7]; PaTu-8988-T, replicate R2, dose 13.72 nM, raw signal): 1366360
- Reponse ([7]; PaTu-8988-T, replicate R2, dose 41.15 nM, raw signal): 917320
- Reponse ([7]; PaTu-8988-T, replicate R2, dose 123.46 nM, raw signal): 868680
- Reponse ([7]; PaTu-8988-T, replicate R2, dose 370.37 nM, raw signal): 808920
- Reponse ([7]; PaTu-8988-T, replicate R2, dose 3333.33 nM, raw signal): 899440
- Reponse ([7]; PaTu-8988-T, replicate R2, dose 10000 nM, raw signal): 809960
- Curve bottom ([7]; PaTu-8988-T, GEM curve fit): 0.31
- Curve effect size ([7]; PaTu-8988-T, GEM curve fit): 0.68
- Curve slope ([7]; PaTu-8988-T, GEM curve fit): 2.40
- Curve top ([7]; PaTu-8988-T, GEM curve fit): 0.96
- AUC ([7]; PaTu-8988-T, GEM curve fit, in %): 56.98

SMILES: C[C@]12O[C@H](C[C@]1(O)CO)n1c3ccccc3c3c4c(c5c6ccccc6n2c5c31)CNC4=O [Lestaurtinib]
- EC50 [8]: 2.79 µM
- EC50 [9]: 0.0837 µM
